Assay type in all cases: in vivo
Data set [1] concerns Beet Armyworm (Spodoptera exigua). In words: Bioassays on BAW, 128-well diet tray assay. To be noted: Spodoptera exigua, 168 h; 50 μg/cm^2 on artificial diet, second instar larvae, five to seven days; read-out: BAW % Control (or Mortality) rating.
The test system of data set [2] is Cabbage Looper (Trichoplusia ni). The data set can be described thus: Bioassays on CL, 128-well diet tray assay. Particulars: Trichoplusia ni, 168 h; 50 μg/cm^2 on artificial diet, second instar larvae, five to seven days; read-out: CL % Control (or Mortality) rating. The method, boiled down: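 Test molecule at 50 μg/cm^2 applied to the artificial diet surface (acetone-water) and dried; one to five second-instar T. ni larvae per well, eight wells per treatment, held at 25° C., 14:10 light-dark for five to seven days. Percent mortality averaged over wells.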

Data set [3] deals with Yellow Fever Mosquito (Aedes aegypti). The data set can be described thus: Bioassays on Yellow Fever Mosquito larvae, 96-well plate. Particulars: from 4000 ppm DMSO master plate, about 1 day-old larvae, 3 days. The method in brief: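 Aedes aegypti larvae about 1 day old, in water with liver powder, exposed in 96-well plates to compounds from a 4000 ppm DMSO master solution diluted in 90:10 water:acetone. Plates covered and held at room temperature for 3 days, then each well scored for mortality; 6 replicate plates.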

For orientation: mortality means the percentage killed.

Regarding `C[C@H](CSCC(F)(F)F)NC(=O)c1ccc(/C=C/C(c2cc(Cl)cc(Cl)c2)C(F)(F)F)cc1C(F)(F)F` (stereo partly drawn) [F88, 4-((E)-3-(3,5-Dichlorophenyl)-4,4,4-trifluorobut-1-en-1-yl)-N—((R)-1-((2,2,2-trifluoroethyl)thio)propan-2-yl)-2-(trifluoromethyl)benzamide], the mortality at 50 µg/cm2 in data set [1] and in data set [2] was 50 to 100% in each case. Besides, the “YFM % Control (or Mortality) rating” value in data set [3] is listed as “A (80-100)”.
As to `Cc1cc(/C=C/C(c2cc(Cl)cc(Cl)c2)C(F)(F)F)ccc1C(=O)N[C@H](C)CSCC(F)(F)F` (stereo partly drawn) [F89, 4-((E)-3-(3,5-Dichlorophenyl)-4,4,4-trifluorobut-1-en-1-yl)-2-methyl-N—((R)-1-((2,2,2-trifluoroethyl)thio)propan-2-yl)benzamide], the mortality at 50 µg/cm2 in data set [1] and in data set [2] was 50 to 100% each time. Further, in data set [3], the “YFM % Control (or Mortality) rating” value was “A (80-100)”.
`C[C@H](C[S+]([O-])CC(F)(F)F)NC(=O)c1ccc(/C=C/C(c2cc(Cl)cc(Cl)c2)C(F)(F)F)cc1C(F)(F)F` (stereo partly drawn) [F90, 4-((E)-3-(3,5-Dichlorophenyl)-4,4,4-trifluorobut-1-en-1-yl)-N-((2R)-1-((2,2,2-trifluoroethyl)sulfinyl)propan-2-yl)-2-(trifluoromethyl)benzamide]: the mortality at 50 µg/cm2 in data set [1] and in data set [2] was 50 to 100% in each case. Also, in data set [3], the “YFM % Control (or Mortality) rating” value is on record as “A (80-100)”.
Regarding `Cc1cc(/C=C/C(c2cc(Cl)cc(Cl)c2)C(F)(F)F)ccc1C(=O)N[C@H](C)C[S+]([O-])CC(F)(F)F` (stereo partly drawn) [F91, 4-((E)-3-(3,5-Dichlorophenyl)-4,4,4-trifluorobut-1-en-1-yl)-2-methyl-N-((2R)-1-((2,2,2-trifluoroethyl)sulfinyl)propan-2-yl)benzamide], the mortality at 50 µg/cm2 in data set [1] and in data set [2] was 50 to 100% in each case. The “YFM % Control (or Mortality) rating” value in data set [3] is given as “A (80-100)”.
As for `Cc1cc(/C=C/C(c2cc(Cl)cc(Cl)c2)C(F)(F)F)ccc1C(=O)N[C@H](C)CS(=O)(=O)CC(F)(F)F` (stereo partly drawn) [F92, 4-((E)-3-(3,5-Dichlorophenyl)-4,4,4-trifluorobut-1-en-1-yl)-2-methyl-N—((R)-1-((2,2,2-trifluoroethyl)sulfonyl)propan-2-yl)benzamide], the mortality at 50 µg/cm2 in data set [1] and in data set [2] was 50 to 100% each time. The “YFM % Control (or Mortality) rating” value in data set [3] is “A (80-100)”.
On to `C[C@H](CS(=O)(=O)CC(F)(F)F)NC(=O)c1ccc(/C=C/C(c2cc(Cl)cc(Cl)c2)C(F)(F)F)cc1C(F)(F)F` (stereo partly drawn) [F93, 4-((E)-3-(3,5-Dichlorophenyl)-4,4,4-trifluorobut-1-en-1-yl)-N—((R)-1-((2,2,2-trifluoroethyl)sulfonyl)propan-2-yl)-2-(trifluoromethyl)benzamide], for which the mortality at 50 µg/cm2 in data set [1] and in data set [2] was 50 to 100% each time. The “YFM % Control (or Mortality) rating” value in data set [3] is on record as “A (80-100)”.
For the compound `C[C@H](C[S+]([O-])CC(F)(F)F)NC(=O)c1ccc(/C=C/C(c2cc(Cl)cc(Cl)c2)C(F)(F)F)cc1Cl` (stereo partly drawn) [F94, 2-Chloro-4-((E)-3-(3,5-dichlorophenyl)-4,4,4-trifluorobut-1-en-1-yl)-N-((2R)-1-((2,2,2-trifluoroethyl)sulfinyl)propan-2-yl)benzamide], the mortality at 50 µg/cm2 in data set [1] and in data set [2] was 50 to 100% each time. In addition, the “YFM % Control (or Mortality) rating” value in data set [3] is “A (80-100)”.
Regarding `C[C@H](CS(=O)(=O)CC(F)(F)F)NC(=O)c1ccc(/C=C/C(c2cc(Cl)cc(Cl)c2)C(F)(F)F)cc1Cl` (stereo partly drawn) [F95, 2-Chloro-4-((E)-3-(3,5-dichlorophenyl)-4,4,4-trifluorobut-1-en-1-yl)-N—((R)-1-((2,2,2-trifluoroethyl)sulfonyl)propan-2-yl)benzamide], the mortality at 50 µg/cm2 in data set [1] and in data set [2] was 50 to 100% in each case. The “YFM % Control (or Mortality) rating” value in data set [3] was “A (80-100)”.
Regarding `C[C@H](CCSCC(F)(F)F)NC(=O)c1ccc(/C=C/C(c2cc(Cl)c(Cl)c(Cl)c2)C(F)(F)F)cc1C(F)(F)F` (stereo partly drawn) [F96, 4-((E)-4,4,4-Trifluoro-3-(3,4,5-trichlorophenyl)but-1-en-1-yl)-N—((R)-4-((2,2,2-trifluoroethyl)thio)butan-2-yl)-2-(trifluoromethyl)benzamide], the mortality at 50 µg/cm2 in data set [1] and in data set [2] was 50 to 100% throughout. The “YFM % Control (or Mortality) rating” value in data set [3] is recorded as “A (80-100)”.
Turning to `Cc1cc(/C=C/C(c2cc(Cl)c(Cl)c(Cl)c2)C(F)(F)F)cc(F)c1C(=O)N[C@H](C)CSCC(F)(F)F` (stereo partly drawn) [F97, 2-Fluoro-6-methyl-4-((E)-4,4,4-trifluoro-3-(3,4,5-trichlorophenyl)but-1-en-1-yl)-N—((R)-1-((2,2,2-trifluoroethyl)thio)propan-2-yl)benzamide], the mortality at 50 µg/cm2 in data set [1] and in data set [2] was 50 to 100% each time. For the same compound, the “YFM % Control (or Mortality) rating” value in data set [3] is recorded as “A (80-100)”.
`Cc1cc(/C=C/C(c2cc(Cl)c(Cl)c(Cl)c2)C(F)(F)F)cc(F)c1C(=O)N[C@H](C)CS(=O)(=O)CC(F)(F)F` (stereo partly drawn) [F98, 2-Fluoro-6-methyl-4-((E)-4,4,4-trifluoro-3-(3,4,5-trichlorophenyl)but-1-en-1-yl)-N—((R)-1-((2,2,2-trifluoroethyl)sulfonyl)propan-2-yl)benzamide]: the mortality at 50 µg/cm2 in data set [1] and in data set [2] was 50 to 100% each time. Moreover, the “YFM % Control (or Mortality) rating” value in data set [3] is given as “A (80-100)”.
On to `Cc1cc(/C=C/C(c2cc(Cl)c(Cl)c(Cl)c2)C(F)(F)F)cc(F)c1C(=O)N[C@H](C)C[S+]([O-])CC(F)(F)F` (stereo partly drawn) [F99, 2-Fluoro-6-methyl-4-((E)-4,4,4-trifluoro-3-(3,4,5-trichlorophenyl)but-1-en-1-yl)-N-((2R)-1-((2,2,2-trifluoroethyl)sulfinyl)propan-2-yl)benzamide], for which the mortality at 50 µg/cm2 in data set [1] and in data set [2] was 50 to 100% each time. In addition, the “YFM % Control (or Mortality) rating” value in data set [3] is given as “A (80-100)”.
Turning to `C[C@H](CSCC(F)(F)F)NC(=O)c1ccc(/C=C/C(c2cc(Cl)c(Cl)c(C=O)c2)C(F)(F)F)cc1C(F)(F)F` (stereo partly drawn) [F100, 4-((E)-3-(3,4-Dichloro-5-formylphenyl)-4,4,4-trifluorobut-1-en-1-yl)-N—((R)-1-((2,2,2-trifluoroethyl)thio)propan-2-yl)-2-(trifluoromethyl)benzamide], the mortality at 50 µg/cm2 in data set [1] and in data set [2] was 50 to 100% throughout. The “YFM % Control (or Mortality) rating” value in data set [3] is “B (More than 0-Less than 80)”.
Consider `C=CCSC[C@@H](C)NC(=O)c1ccc(/C=C/C(c2cc(Cl)c(Cl)c(Cl)c2)C(F)(F)F)cc1C(F)(F)F` (stereo partly drawn) [F101, N—((R)-1-(Allylthio)propan-2-yl)-4-((E)-4,4,4-trifluoro-3-(3,4,5-trichlorophenyl)but-1-en-1-yl)-2-(trifluoromethyl)benzamide], for which the mortality at 50 µg/cm2 in data set [1] and in data set [2] was 50 to 100% in each case. The “YFM % Control (or Mortality) rating” value in data set [3] is given as “A (80-100)”.
With `C=CCS(=O)(=O)C[C@@H](C)NC(=O)c1ccc(/C=C/C(c2cc(Cl)c(Cl)c(Cl)c2)C(F)(F)F)cc1C(F)(F)F` (stereo partly drawn) [F102, N—((R)-1-(Allylsulfonyl)propan-2-yl)-4-((E)-4,4,4-trifluoro-3-(3,4,5-trichlorophenyl)but-1-en-1-yl)-2-(trifluoromethyl)benzamide], the mortality at 50 µg/cm2 in data set [1] and in data set [2] was 50 to 100% throughout. The “YFM % Control (or Mortality) rating” value in data set [3] is recorded as “A (80-100)”.
Consider `C=CC[S+]([O-])C[C@@H](C)NC(=O)c1ccc(/C=C/C(c2cc(Cl)c(Cl)c(Cl)c2)C(F)(F)F)cc1C(F)(F)F` (stereo partly drawn) [F103, N-((2R)-1-(Allylsulfinyl)propan-2-yl)-4-((E)-4,4,4-trifluoro-3-(3,4,5-trichlorophenyl)but-1-en-1-yl)-2-(trifluoromethyl)benzamide], for which the mortality at 50 µg/cm2 in data set [1] and in data set [2] was 50 to 100% throughout. Further, the “YFM % Control (or Mortality) rating” value in data set [3] is “A (80-100)”.
Consider `C[C@H](CSCC(F)(F)F)NC(=O)c1ccc(/C=C/C(c2cc(Cl)cc(Cl)c2)C(F)(F)F)cc1Cl` (stereo partly drawn) [F104, 2-Chloro-4-((E)-3-(3,5-dichlorophenyl)-4,4,4-trifluorobut-1-en-1-yl)-N—((R)-1-((2,2,2-trifluoroethyl)thio)propan-2-yl)benzamide], for which the mortality at 50 µg/cm2 in data set [1] and in data set [2] was 50 to 100% each time. In data set [3], the “YFM % Control (or Mortality) rating” value is “A (80-100)”.
Consider `C[C@H](CC[S+]([O-])CC(F)(F)F)NC(=O)c1ccc(/C=C/C(c2cc(Cl)c(Cl)c(Cl)c2)C(F)(F)F)cc1C(F)(F)F` (stereo partly drawn) [F105, 4-((E)-4,4,4-Trifluoro-3-(3,4,5-trichlorophenyl)but-1-en-1-yl)-N-((2R)-4-((2,2,2-trifluoroethyl)sulfinyl)butan-2-yl)-2-(trifluoromethyl)benzamide], for which the mortality at 50 µg/cm2 in data set [1] and in data set [2] was 50 to 100% in each case. The “YFM % Control (or Mortality) rating” value in data set [3] is reported as “A (80-100)”.
For `C[C@H](CCS(=O)(=O)CC(F)(F)F)NC(=O)c1ccc(/C=C/C(c2cc(Cl)c(Cl)c(Cl)c2)C(F)(F)F)cc1C(F)(F)F` (stereo partly drawn) [F106, 4-((E)-4,4,4-Trifluoro-3-(3,4,5-trichlorophenyl)but-1-en-1-yl)-N—((R)-4-((2,2,2-trifluoroethyl)sulfonyl)butan-2-yl)-2-(trifluoromethyl)benzamide], the mortality at 50 µg/cm2 in data set [1] and in data set [2] was 50 to 100% throughout. In data set [3], the “YFM % Control (or Mortality) rating” value was “A (80-100)”.
